Assay results taken from US8969565B2, “Imidazo[1,2-b]pyridazine-based compounds, compositions comprising them, and methods of their use” (Lexicon Pharmaceuticals, Inc., priority 2012, dated 2015).

Biological target: T1, AAK1 (Homo sapiens, UniProt Q2M2I8)
T1 construct: HA; expressed in transfected cells; host or cells: HEK293F
Assay: HEK281 cell-based assay (phospho-mu2 Western blot in transfected HEK293F cells)
Details: 3 hours incubation, read-out: CBA IC50
In short: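 HEK293F cells co-transfected with full-length human AAK1/HA and Flag/AP2M1 were treated next day with 5 compound concentrations (3-fold dilutions) in DMEM+0.5% FBS for 3 hours at 37° C. Lysates were Western blotted for phospho-mu2, with total mu2 detected by anti-Flag.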

T1 sequence (Q2M2I8 1-863 isoform Q2M2I8-2): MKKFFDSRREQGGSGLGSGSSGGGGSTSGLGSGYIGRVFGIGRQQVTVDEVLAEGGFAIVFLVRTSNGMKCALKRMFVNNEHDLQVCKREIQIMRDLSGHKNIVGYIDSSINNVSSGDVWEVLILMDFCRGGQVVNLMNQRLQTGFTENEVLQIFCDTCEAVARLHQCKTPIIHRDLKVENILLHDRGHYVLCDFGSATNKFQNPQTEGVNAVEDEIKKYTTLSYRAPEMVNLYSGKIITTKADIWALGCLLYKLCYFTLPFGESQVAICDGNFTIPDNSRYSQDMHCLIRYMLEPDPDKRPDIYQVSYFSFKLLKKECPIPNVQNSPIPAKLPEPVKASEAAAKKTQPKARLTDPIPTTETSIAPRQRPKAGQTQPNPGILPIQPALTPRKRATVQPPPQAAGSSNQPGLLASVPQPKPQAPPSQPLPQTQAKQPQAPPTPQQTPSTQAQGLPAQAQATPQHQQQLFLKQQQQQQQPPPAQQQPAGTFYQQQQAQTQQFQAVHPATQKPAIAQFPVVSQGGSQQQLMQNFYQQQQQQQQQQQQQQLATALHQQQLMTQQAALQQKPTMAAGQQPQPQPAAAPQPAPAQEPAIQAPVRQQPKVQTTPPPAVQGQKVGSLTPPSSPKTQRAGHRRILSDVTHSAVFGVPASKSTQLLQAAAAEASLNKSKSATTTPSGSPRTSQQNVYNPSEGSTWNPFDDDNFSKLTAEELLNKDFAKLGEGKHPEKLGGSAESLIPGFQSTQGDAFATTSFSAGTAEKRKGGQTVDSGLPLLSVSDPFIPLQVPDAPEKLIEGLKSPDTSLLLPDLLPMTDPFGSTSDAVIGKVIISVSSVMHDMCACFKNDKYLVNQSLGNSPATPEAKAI

| SMILES | IC50 [µM] |
| --- | --- |
| CNC(=O)c1cnc2ccc(N3CCN(C(=O)OC(C)C)CC3)nn12 [isopropyl 4-(3-(methylcarbamoyl)imidazo[1,2-b]pyridazin-6-yl)piperazine-1-carboxylate] | ≤ 0.1 |
| CC(C)OC(=O)N1CCN(c2ccc3ncc(-c4ccncc4)n3n2)CC1 [isopropyl 4-(3-(pyridin-4-yl)imidazo[1,2-b]pyridazin-6-yl)piperazine-1-carboxylate] | ≤ 0.1 |
| CC(C)OC(=O)N(C)CCNc1ccc2ncc(-c3cn[nH]c3)n2n1 [isopropyl (2-((3-(1H-pyrazol-4-yl)imidazo[1,2-b]pyridazin-6-yl)amino)ethyl)(methyl)carbamate] | ≤ 0.1 |
| Cc1nc(C)c(-c2cnc3ccc(NCCN(C)C(=O)OC(C)C)nn23)s1 [isopropyl (2-((3-(2,4-dimethylthiazol-5-yl)imidazo[1,2-b]pyridazin-6-yl)amino)ethyl)(methyl)carbamate] | ≤ 0.1 |
| CC(C)OC(=O)N(C)CCNc1ccc2ncc(-c3ccnc(N)c3)n2n1 [isopropyl (2-((3-(2-aminopyridin-4-yl)imidazo[1,2-b]pyridazin-6-yl)amino)ethyl)(methyl)carbamate] | ≤ 0.1 |
| CC(C)OC(=O)N(C)CCNc1ccc2ncc(-c3ccccc3F)n2n1 [isopropyl (2-((3-(2-fluorophenyl)imidazo[1,2-b]pyridazin-6-yl)amino)ethyl)(methyl)carbamate] | ≤ 0.1 |
| COc1ccccc1-c1cnc2ccc(NCCN(C)C(=O)OC(C)C)nn12 [isopropyl (2-((3-(2-methoxyphenyl)imidazo[1,2-b]pyridazin-6-yl)amino)ethyl)(methyl)carbamate] | ≤ 0.1 |
| COc1cnccc1-c1cnc2ccc(NCCN(C)C(=O)OC(C)C)nn12 [isopropyl (2-((3-(3-methoxypyridin-4-yl)imidazo[1,2-b]pyridazin-6-yl)amino)ethyl)(methyl)carbamate] | ≤ 0.1 |
| COc1cc(F)c(F)cc1-c1cnc2ccc(NCCN(C(=O)OC(C)C)C(C)C)nn12 [isopropyl (2-((3-(4,5-difluoro-2-methoxyphenyl)imidazo[1,2-b]pyridazin-6-yl)amino)ethyl)(isopropyl)carbamate] | ≤ 0.1 |
| COc1cc(F)ccc1-c1cnc2ccc(NCCN(C)C(=O)OC(C)C)nn12 [isopropyl (2-((3-(4-fluoro-2-methoxyphenyl)imidazo[1,2-b]pyridazin-6-yl)amino)ethyl)(methyl)carbamate] | ≤ 0.1 |
| COc1ccc(F)cc1-c1cnc2ccc(NCCN(C(=O)OC(C)C)C(C)C)nn12 [isopropyl (2-((3-(5-fluoro-2-methoxyphenyl)imidazo[1,2-b]pyridazin-6-yl)amino)ethyl)(isopropyl)carbamate] | ≤ 0.1 |
| COc1ccc(F)cc1-c1cnc2ccc(NCCN(C)C(=O)OC(C)C)nn12 [isopropyl (2-((3-(5-fluoro-2-methoxyphenyl)imidazo[1,2-b]pyridazin-6-yl)amino)ethyl)(methyl)carbamate] | ≤ 0.01 |
| CC(=O)c1ccc(-c2cnc3ccc(NCCCN(C)C(=O)OC(C)C)nn23)s1 [isopropyl (3-((3-(5-acetylthiophen-2-yl)imidazo[1,2-b]pyridazin-6-yl)amino)propyl)(methyl)carbamate] | ≤ 0.1 |
| CCN(CCNc1ccc2ncc(-c3ccncc3OC)n2n1)C(=O)OC(C)C [isopropyl ethyl(2-((3-(3-methoxypyridin-4-yl)imidazo[1,2-b]pyridazin-6-yl)amino)ethyl)carbamate] | ≤ 0.1 |
| COc1ccccc1-c1cnc2ccc(NCCN(C(=O)OC(C)C)C(C)C)nn12 [isopropyl isopropyl(2-((3-(2-methoxyphenyl)imidazo[1,2-b]pyridazin-6-yl)amino)ethyl)carbamate] | ≤ 0.1 |
| COc1cnccc1-c1cnc2ccc(NCCN(C(=O)OC(C)C)C(C)C)nn12 [isopropyl isopropyl(2-((3-(3-methoxypyridin-4-yl)imidazo[1,2-b]pyridazin-6-yl)amino)ethyl)carbamate] | ≤ 0.01 |
| CC(C)OC(=O)N(CCNc1ccc2ncc(-c3ccncc3)n2n1)C(C)C [isopropyl isopropyl(2-((3-(pyridin-4-yl)imidazo[1,2-b]pyridazin-6-yl)amino)ethyl)carbamate] | ≤ 0.1 |
| CC(C)OC(=O)N(CCNc1ccc2ncc(-c3ccccc3)n2n1)C(C)C [isopropyl isopropyl(2-((3-phenylimidazo[1,2-b]pyridazin-6-yl)amino)ethyl)carbamate] | ≤ 0.1 |
| CC(C)OC(=O)N(C)CCNc1ccc2ncc(-c3ccc(C4CCCN4)cc3)n2n1 (centres unmarked) [isopropyl methyl(2-((3-(4-(pyrrolidin-2-yl)phenyl)imidazo[1,2-b]pyridazin-6-yl)amino)ethyl)carbamate] | ≤ 0.01 |
| CC(C)OC(=O)N(C)CCNc1ccc2ncc(-c3cscn3)n2n1 [isopropyl methyl(2-((3-(thiazol-4-yl)imidazo[1,2-b]pyridazin-6-yl)amino)ethyl)carbamate] | ≤ 0.1 |
| COC(=O)N(CCNc1ccc2ncc(-c3ccncc3OC)n2n1)C(C)C [methyl isopropyl(2-((3-(3-methoxypyridin-4-yl)imidazo[1,2-b]pyridazin-6-yl)amino)ethyl)carbamate] | ≤ 0.01 |
| CCCOC(=O)N(CCNc1ccc2ncc(-c3ccncc3OC)n2n1)C(C)C [propyl isopropyl(2-((3-(3-methoxypyridin-4-yl)imidazo[1,2-b]pyridazin-6-yl)amino)ethyl)carbamate] | ≤ 1 |
| COc1cnccc1-c1cnc2ccc(N3CCN(C(=O)OC(C)(C)C)CC3)nn12 [tert-butyl 4-(3-(3-methoxypyridin-4-yl)imidazo[1,2-b]pyridazin-6-yl)piperazine-1-carboxylate] | ≤ 0.01 |
| CC(C)(C)OC(=O)N1CCN(c2ccc3ncc(Cl)n3n2)CC1 [tert-butyl 4-(3-chloroimidazo[1,2-b]pyridazin-6-yl)piperazine-1-carboxylate] | ≤ 0.1 |

The remaining lines, values ahead:

| IC50 [µM] | SMILES |
| --- | --- |
| ≤ 0.1 | COc1cnccc1-c1cnc2ccc(NCCNC(=O)OC(C)C)nn12 [isopropyl (2-((3-(3-methoxypyridin-4-yl)imidazo[1,2-b]pyridazin-6-yl)amino)ethyl)carbamate] |
| ≤ 0.1 | CC(C)OC(=O)N(CCNc1ccc2ncc(-c3ccc(C(N)=O)cc3)n2n1)C(C)C [isopropyl (2-((3-(4-carbamoylphenyl)imidazo[1,2-b]pyridazin-6-yl)amino)ethyl)(isopropyl)carbamate] |
| ≤ 0.01 | CC(C)OC(=O)N(C)CCNc1ccc2ncc(-c3ccc(C(N)=O)cc3)n2n1 [isopropyl (2-((3-(4-carbamoylphenyl)imidazo[1,2-b]pyridazin-6-yl)amino)ethyl)(methyl)carbamate] |
| ≤ 0.1 | CC(C)OC(=O)N(C)CCCNc1ccc2ncc(-c3ccc(CN)cc3)n2n1 [isopropyl (3-((3-(4-(aminomethyl)phenyl)imidazo[1,2-b]pyridazin-6-yl)amino)propyl)(methyl)carbamate] |
| ≤ 0.1 | CCN(CCNc1ccc2ncc(-c3ccc(C(=O)NC)cc3)n2n1)C(=O)OC(C)C [isopropyl ethyl(2-((3-(4-(methylcarbamoyl)phenyl)imidazo[1,2-b]pyridazin-6-yl)amino)ethyl)carbamate] |
| ≤ 0.1 | CNC(=O)c1ccc(-c2cnc3ccc(NCCN(C(=O)OC(C)C)C(C)C)nn23)cc1 [isopropyl isopropyl(2-((3-(4-(methylcarbamoyl)phenyl)imidazo[1,2-b]pyridazin-6-yl)amino)ethyl)carbamate] |
| ≤ 0.1 | CNC(=O)c1ccc(-c2cnc3ccc(NCCN(C)C(=O)OC(C)C)nn23)cc1 [isopropyl methyl(2-((3-(4-(methylcarbamoyl)phenyl)imidazo[1,2-b]pyridazin-6-yl)amino)ethyl)carbamate] |
| ≤ 0.01 | CC(C)(C)OC(=O)N1CCCC1CCNc1ccc2ncc(-c3ccc(CN)cc3)n2n1 (centres unmarked) [tert-butyl 2-(2-((3-(4-(aminomethyl)phenyl)imidazo[1,2-b]pyridazin-6-yl)amino)ethyl)pyrrolidine-1-carboxylate] |
| ≤ 0.1 | CC(C)(C)OC(=O)N1CCCC1CCNc1ccc2ncc(-c3ccc(C(N)=O)cc3)n2n1 (centres unmarked) [tert-butyl 2-(2-((3-(4-carbamoylphenyl)imidazo[1,2-b]pyridazin-6-yl)amino)ethyl)pyrrolidine-1-carboxylate] |
| ≤ 0.01 | CN(CCNc1ccc2ncc(-c3ccnc(N)c3)n2n1)C(=O)OC(C)(C)C [tert-butyl (2-((3-(2-aminopyridin-4-yl)imidazo[1,2-b]pyridazin-6-yl)amino)ethyl)(methyl)carbamate] |
| ≤ 0.1 | CN(CCNc1ccc2ncc(-c3ccccc3F)n2n1)C(=O)OC(C)(C)C [tert-butyl (2-((3-(2-fluorophenyl)imidazo[1,2-b]pyridazin-6-yl)amino)ethyl)(methyl)carbamate] |
| ≤ 0.1 | CN(CCNc1ccc2ncc(-c3ccnc(F)c3)n2n1)C(=O)OC(C)(C)C [tert-butyl (2-((3-(2-fluoropyridin-4-yl)imidazo[1,2-b]pyridazin-6-yl)amino)ethyl)(methyl)carbamate] |
| ≤ 0.1 | COc1ccccc1-c1cnc2ccc(NCCN(C)C(=O)OC(C)(C)C)nn12 [tert-butyl (2-((3-(2-methoxyphenyl)imidazo[1,2-b]pyridazin-6-yl)amino)ethyl)(methyl)carbamate] |
| ≤ 0.1 | CN(CCNc1ccc2ncc(-c3cccc(C(N)=O)c3)n2n1)C(=O)OC(C)(C)C [tert-butyl (2-((3-(3-carbamoylphenyl)imidazo[1,2-b]pyridazin-6-yl)amino)ethyl)(methyl)carbamate] |
| ≤ 0.1 | COc1cccc(-c2cnc3ccc(NCCN(C)C(=O)OC(C)(C)C)nn23)c1 [tert-butyl (2-((3-(3-methoxyphenyl)imidazo[1,2-b]pyridazin-6-yl)amino)ethyl)(methyl)carbamate] |
| ≤ 1 | COc1cnccc1-c1cnc2ccc(NCCN(C)C(=O)OC(C)(C)C)nn12 [tert-butyl (2-((3-(3-methoxypyridin-4-yl)imidazo[1,2-b]pyridazin-6-yl)amino)ethyl)(methyl)carbamate] |
| ≤ 0.1 | CC(C)(C)OC(=O)NCCNc1ccc2ncc(-c3ccc(CN)cc3)n2n1 [tert-butyl (2-((3-(4-(aminomethyl)phenyl)imidazo[1,2-b]pyridazin-6-yl)amino)ethyl)carbamate] |
